“And” between values parts separate entries of the source, which are not always exact repeats. Equal entries are not always repeated. Where two headings read alike, the source gives them in different places.
Tests used:
[1] = target: T1, Cq-FABP (Cherax quadricarinatus, UniProt L0I6Z9); test: Time-resolved Trp fluorescence lifetime (single-photon counting) with ANS and PA; assay type: binding; settings: for FRET efficiency: from lifetimes; for Δ%FRET,max based on lifetime values: without versus with 70 µM PA
Method: The distribution of fluorescence lifetimes of tryptophan was determined by monitoring the intensity decay, I(t), using the single-photon counting technique [27]–[31]. Briefly, the excitation light pulse source was a Ti:sapphire laser (Mai Tai femtosecond laser, Spectra Physics, Mountain View, CA, USA) associated with a third harmonic generator tuned to 296 nm. The laser frequency was reduced from 80 to 8 MHz using a pulse picker (Spectra Physics). Fluorescence emission was detected by a microchannel plate photomultiplier (Hamamatsu model R3809U-05) through a monochromator (ARC SpectraPro-150) set at 340 nm (Δλ = 15 nm) with the emission polarizer set at the magic angle (54.7°). A time-correlated single-photon counting SPC-430 card (Becker–Hickl, Berlin, Germany) was used for the acquisition. Experiments were performed at 25°C using 5 µM Cq-FABP in buffer C. The average fluorescence lifetime values (τm), as reported in Table 1, were calculated from the lifetime distributions recovered by the maximum entropy method, [29], [32]. For example, Cq-FABP alone was characterized by three fluorescence lifetimes (τ1 = 0.6 ns (6%), τ2 = 2.67 ns (53%), τ3 = 3.89 (41%); τm = 3.04 ns).

[2] = target: T1, Cq-FABP; test: Steady-state FRET between the single Trp (W49) and ANS, Trp quenching and recovery by PA; assay type: binding
Method: (§1) Fluorescence emission spectra were measured at 25°C on a Cary-Eclipse spectrofluorimeter (Varian, CA, USA) equipped with a thermostated cell holder, using solutions (70 µl) placed in microcuvettes (pathlength, 0.3 cm). The binding of non-fluorescent fatty acids (PA, OA, LA, EPA and DHA) to Cq-FABP was measured indirectly by equilibrium displacement experiments using ANS as a fluorescent probe, either by measuring the fluorescence emission of ANS or by measuring the FRET between tryptophan and ANS, resulting in the quenching of donor fluorescence. The excitation wavelength was then set at 296 or 350 nm for tryptophan or ANS, respectively; the slit widths and PMT voltage were adjusted to optimize the fluorescence signal at 25°C. For titration experiments, the fluorescence emission spectrum of tryptophan or ANS was measured and the integrated fluorescence signal of tryptophan (315–360 nm) or ANS (440–600 nm) was calculated. For samples containing high concentrations of ANS, the inner-filter effect was not negligible and was corrected. UV-visible absorption spectra were carried out on a Uvikon XL spectrophotometer.

[3] = target: T1, Cq-FABP; test: ANS fluorescence intensity titration and equilibrium displacement of ANS by fatty acids; assay type: binding
Method: as §1
The equilibrium dissociation constant (Kd,FA) relative to the binding of fatty acids (FA) to Cq-FABP was determined by competition experiments using ANS displacement and linear regression of the following relationship: [drawing 1] (1) where Kd,ANS is the dissociation constant relative to the binding of ANS to the fatty acid binding site, Kd ^app ,ANS is the apparent dissociation constant of ANS obtained in the presence of a given fatty acid concentration.

[4] = target: FABP4; parameters: method as in PMID 11827549; settings: ref [6]; read-out: Kd of ANS; cited from earlier work
[5] = target: T1, Cq-FABP; test: BODIPY-C16 steady-state fluorescence anisotropy titration and competition; assay type: binding
Method: The binding of 4,4-difluoro-5, 7-dimethyl-4-bora-3a, 4a-diaza-s-indacene-3-hexadecanoic acid (BODIPY-C16) to Cq-FABP was investigated by measuring the steady-state fluorescence anisotropy parameter using a Beacon instrument (PanVera, Madison, USA), in a cell thermostatically held at 25°C. The excitation and emission bandpass filters were centered at 488 nm (±6 nm) and 525 nm (±15 nm), respectively. Titration experiments were performed in buffer C (supplemented with 10% DMSO (v/v)) by maintening a constant concentration of BODIPY-C16 (200 nM) and by adding increasing concentrations of Cq-FABP. Using a vertical direction for the polarized excitation source, the steady-state fluorescence anisotropy (r) was calculated according to: [drawing 3] (3) where IV and IH correspond to the parallel (vertical) and perpendicular (horizontal) fluorescence emission intensity components, respectively. The fraction of BODIPY-C16/Cq-FABP complexes (i.e. the fraction of BODIPY-C16 bound to Cq-FABP), fb, was calculated using the following relationship: [drawing 4] (4) where r is the measured fluorescence anisotropy value, rf and rb correspond to the fluorescence anisotropy values of free BODIPY-C16 (ligand in the free state, measured in the absence of Cq-FABP) and Cq-FABP-bound BODIPY-C16 (ligand in the bound state, corresponding to the maximum anisotropy value found at the plateau), respectively. […] The Kd characterizing the BODIPY-C16/Cq-FABP complex (Kd,C16) was calculated by fitting the plot of fb versus [Cq-FABP] using the Graphpad Prism 5.0 software.
The fluorescence anisotropy-based assay was also used in competition experiments to calculate the Kd values (Kd,FA) characterizing non-fluorescent fatty acids. The measurement of the apparent Kd value characterizing the BODIPY-C16/Cq-FABP complex (Kd ^app ,C16) under different concentration conditions for the non-fluorescent FA allows the calculation of Kd,FA according to: [drawing 5] (5) where Kd,C16 corresponds to the Kd characterizing the BODIPY-C16/Cq-FABP complex (in the absence of any non-fluorescent FA) and Kd ^app ,C16 corresponds to the apparent dissociation constant obtained for a given concentration of non-fluorescent FA. The calculation of Kd,FA was also performed in an independent manner by measuring the IC50 value characterizing each non-fluorescent FA. In this approach, the number of complexes corresponding to [C16] = 200 nM and [Cq-FABP] = 5 µM was varied by increasing the concentration of non-fluorescent FA. The IC50 value corresponds to the concentration of non-fluorescent FA that displaces 50% of C16 from the fatty acid binding site of Cq-FABP and is related to Kd,FA through the Cheng-Prusoff relationship: [drawing 6] (6)

[6] = target: T1, Cq-FABP; test: DAUDA fluorescence intensity enhancement; assay type: binding; settings: 5 µM Cq-FABP versus free DAUDA (Fig. S3A)
Description: Cis-parinaric acid and DAUDA were characterized by fluorescence emission in the 380–500 nm region (λmax,em: 410 nm) and in the 480–650 nm region (λmax,em: 540 nm), respectively (excitation wavelengths were set at 320 or 335 nm for cis-parinaric acid or DAUDA, respectively). The fluorescence intensity enhancement upon binding to Cq-FABP was monitored on a Cary-Eclipse spectrofluorimeter as indicated above. All the fluorescence emission intensities were corrected for the inner-filter effect. The emission intensity of a given fluorophore in the presence of Cq-FABP was also systematically corrected for the emission intensity of the free fluorophore. The calculation of Kd,FA was performed by measuring the IC50 value (inhibition concentration 50%) characterizing each non-fluorescent FA. As DAUDA poorly binds to Cq-FABP (see results section), only cis-parinaric acid (CPA) was used for measuring IC50 values. Titration and equilibrium displacement experiments using CPA were performed in buffer C (supplemented with 10% DMSO (v/v)). For the determination of IC50 values, the number of complexes corresponding to [CPA] = 7 µM and [Cq-FABP] = 5 µM was varied by increasing the concentration of non-fluorescent FA. […]

[7] = target: T1, Cq-FABP; test: cis-Parinaric acid fluorescence intensity titration and competitive displacement; assay type: binding
Description: Cis-parinaric acid and DAUDA were characterized by fluorescence emission in the 380–500 nm region (λmax,em: 410 nm) and in the 480–650 nm region (λmax,em: 540 nm), respectively (excitation wavelengths were set at 320 or 335 nm for cis-parinaric acid or DAUDA, respectively). The fluorescence intensity enhancement upon binding to Cq-FABP was monitored on a Cary-Eclipse spectrofluorimeter as indicated above. All the fluorescence emission intensities were corrected for the inner-filter effect. The emission intensity of a given fluorophore in the presence of Cq-FABP was also systematically corrected for the emission intensity of the free fluorophore. The calculation of Kd,FA was performed by measuring the IC50 value (inhibition concentration 50%) characterizing each non-fluorescent FA. As DAUDA poorly binds to Cq-FABP (see results section), only cis-parinaric acid (CPA) was used for measuring IC50 values. Titration and equilibrium displacement experiments using CPA were performed in buffer C (supplemented with 10% DMSO (v/v)). For the determination of IC50 values, the number of complexes corresponding to [CPA] = 7 µM and [Cq-FABP] = 5 µM was varied by increasing the concentration of non-fluorescent FA. The IC50 value corresponds to the concentration of non-fluorescent FA that displaces 50% of CPA from the fatty acid binding site of Cq-FABP and is related to Kd,FA through the Cheng-Prusoff relationship: [drawing 2] (2)

[8] = 200 nM BODIPY-C16, 5 µM Cq-FABP, read-out: IC50 (displaces 50% of BODIPY-C16 from the fatty acid binding site)
[9] = calculated from the IC50 values, using Eq. 6, 200 nM BODIPY-C16, 5 µM Cq-FABP, read-out: Kd,FA
[10] = calculated from the Kd app,C16 values, using Eq. 5, 200 nM BODIPY-C16, read-out: Kd,FA
[11] = calculated from the IC50 values (Eq. 2) using the fluorescence intensity of cis-parinaric acid, 7 µM CPA, 5 µM Cq-FABP, read-out: Kd,FA
[12] = calculated from equilibrium displacement experiments using the fluorescence intensity of ANS (Eq. 1), read-out: Kd,FA

T1 sequence (L0I6Z9 entry or part of it): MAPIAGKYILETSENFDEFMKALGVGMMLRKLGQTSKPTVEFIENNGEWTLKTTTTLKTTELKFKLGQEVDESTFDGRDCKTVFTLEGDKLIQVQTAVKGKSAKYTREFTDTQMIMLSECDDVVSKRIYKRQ

O=S(=O)(O)c1cccc2cccc(Nc3ccccc3)c12 [ANS, 8-Anilino-1-naphthalenesulfonate]
Average fluorescence Lifetime, τm ([1]; 5 µM Cq-FABP + 5 µM ANS): 2.85 ns | FRET efficiency ([1]; 5 µM Cq-FABP + 5 µM ANS): 6.2% | Average fluorescence Lifetime, τm ([1]; 5 µM Cq-FABP + 10 µM ANS): 2.75 ns | FRET efficiency ([1]; 5 µM Cq-FABP + 10 µM ANS): 9.5% | Average fluorescence Lifetime, τm ([1]; 5 µM Cq-FABP + 50 µM ANS): 2.39 ns | FRET efficiency ([1]; 5 µM Cq-FABP + 50 µM ANS): 21.4% | Average fluorescence Lifetime, τm ([1]; 5 µM Cq-FABP + 200 µM ANS): 2.00 ns | FRET efficiency ([1]; 5 µM Cq-FABP + 200 µM ANS): 34.2% | Δ%FRET,max based on lifetime values ([1]; [ANS] = 50 µM): 12.5% | Δ%FRET,max based on lifetime values ([1]; [ANS] = 200 µM): 11.2% | Kd ([2]; from Δ%FRET versus [ANS] (Fig. 4D), binding to fatty acid binding site only, read-out: Kd,ANS): 27.6 µM | Kd ([2]; quenching of Trp steady-state emission by ANS, specific plus non specific binding (Fig. 4A), read-out: apparent Kd of ANS): ~100 µM | Δ%FRET,max (plateau) ([2]; steady-state fluorescence intensities, amplitude between [PA]0 and [PA]+∞ (Fig. 4D)): 10% | Kd ([3]; average of the Kd,ANS values from the intensity and FRET procedures, read-out: average Kd,ANS): 27.9 µM | Kd ([3]; direct titration, 5 µM Cq-FABP, 25°C, after removing free ANS and non specific contributions (Fig. 2B), read-out: Kd,ANS): 30 µM and ~30 µM | Kd ([3]; from displacement amplitude ΔI by PA plotted against [ANS] (Fig. 2D), 5 µM Cq-FABP, read-out: Kd,ANS): 26 µM | Kd ([3]; y-intercept of Kd app,ANS versus [PA] linear regression (Fig. 3B), read-out: Kd,ANS): 27.8 µM | Kd [4]: 1700 nM

Cc1cc(C)n2c1C=C1C=CC(CCCCCCCCCCCCCCCC(=O)O)=[N+]1[B-]2(F)F [BODIPY-C16, 4,4-difluoro-5,7-dimethyl-4-bora-3a, 4a-diaza-s-indacene-3-hexadecanoic acid, reference compound]
Kd ([5]; direct titration, 200 nM BODIPY-C16, increasing Cq-FABP, 25°C, 10% DMSO, read-out: Kd,C16): 3.1 µM

CN(C)c1cccc2c(S(=O)(=O)NCCCCCCCCCCC(=O)O)cccc12 [DAUDA, 11-((5-dimethylaminonaphthalene-1-sulphonyl)amino)-undecanoic acid, reference compound]
IC50 [5, 8]: 263 µM | Kd ([5]; from IC50 according to the Cheng-Prusoff relationship, 200 nM BODIPY-C16, 5 µM Cq-FABP, read-out: apparent Kd of Cq-FABP/DAUDA complex): ~250 µM | binding of DAUDA by fluorescence enhancement [6]: does not bind or only poorly binds

CC/C=C\C/C=C\C/C=C\C/C=C\C/C=C\C/C=C\CCC(=O)O [DHA, cis-4,7,10,13,16,19-docosahexaenoic acid]
IC50 [5, 8]: 7.67 µM | Kd [5, 9]: 7.4 ± 0.7 µM | Kd [5, 10]: 6.6 ± 0.5 µM | Kd [7, 11]: 4.4 ± 0.8 µM | Kd [3, 12]: 5.8 ± 0.3 µM

CC/C=C\C/C=C\C/C=C\C/C=C\C/C=C\CCCC(=O)O [EPA, cis-5,8,11,14,17-eicosapentaenoic acid]
IC50 [5, 8]: 2.29 µM | Kd [5, 9]: 2.2 ± 0.4 µM | Kd [5, 10]: 3.5 ± 0.4 µM | Kd [3, 12]: 2.9 ± 0.3 µM

CCCCC/C=C\C/C=C\CCCCCCCC(=O)O [LA, linoleic acid]
IC50 [5, 8]: 3.53 µM | Kd [5, 9]: 3.4 ± 0.4 µM | Kd [5, 10]: 3 ± 0.4 µM | Kd [7, 11]: 3.3 ± 0.7 µM | Kd [3, 12]: 3.1 ± 0.5 µM

CCCCCCCC/C=C\CCCCCCCC(=O)O [OA, oleic acid]
IC50 [5]: 2.23 µM | Kd ([5]; Kd,FA, calculated from the IC50 values, using Eq. 6, 200 nM BODIPY-C16, 5 µM Cq-FABP): 2.15 ± 0.4 µM | Kd ([5]; Kd,FA, calculated from the Kd app,C16 values, using Eq. 5, 200 nM BODIPY-C16): 2.6 ± 0.3 µM | Kd [7]: 1.3 ± 0.6 µM | Kd [3]: 2.4 ± 0.4 µM

CC\C=C/C=C/C=C/C=C\CCCCCCCC(=O)O [cis-parinaric acid, reference compound]
Kd ([7]; fluorescence enhancement upon binding, 5 µM Cq-FABP, buffer C + 10% DMSO (Fig. S3B), read-out: Kd of cis-parinaric acid): 31.2 µM
